# From PMC9986244, “Connection between MHC class II binding and aggregation propensity: The antigenic peptide 10 of Paracoccidioides brasiliensis as a benchmark study” (Computational and Structural Biotechnology Journal, 2023)
# Target: MHC-II allele DRB1*01:01 (Homo sapiens, UniProt P01903+P01911, A100R/D57E/F55L/F60I/F76Y/I96L/L162R/M171V/P40L/Q125E/R42F/V115G/Y59C)
# Format: binding
# Details: not given
row,Sequence,Affinity for MHC-II (subfamily by experimental affinity scores)
1,QTLIAIHTLAIRYAN [Peptide P10],high affinity

# Same assay, conditions: DRB1*01:01; SF-high / SF-low assigned from REVEAL scores
row,Sequence,Affinity for MHC-II (subfamily by experimental affinity scores)
1,QMLHAIHTLAIRYAN [Peptide V16],high affinity
2,QNHHAIHTLAIRYAN [Peptide V15],low affinity
3,QTLTAIHTLAIRYAN [Peptide V6],high affinity
4,QTLQAIHTLAIRLAN [Peptide V11],high affinity
5,QGLPAIHTLAIRYAN [Peptide V7],low affinity
6,QTYHAIHTLAIRYAN [Peptide V14],high affinity
7,QTLLDIHTLAIRYAN [Peptide V1],low affinity
8,QGLKAIHTLAIRYAN [Peptide V10],high affinity
9,QPFQDIHTLAIRYAN [Peptide V5],low affinity
10,QPFPDIHTLAIRYAN [Peptide V3],low affinity
